# Experimental data taken from patent US20240099951A1, “HAIR GROWTH STIMULANT” (ADJUVANT HOLDINGS CO., LTD., priority 2020, published 2024).
# What was measured:
# [1] = tested on: skin samples derived from C57BL/6N mouse dorsal body hair skin grafted onto Balb/c nu/nu mice; experiment: Evaluation of hair growth activity: drug applied on skin samples transplanted in mice; format: in vivo
# Method: C57BL/6N mice (male) and Balb/c nu/nu mice (female) were purchased from Japan SLC, Inc. (Japan) and bred, and were thereafter made available for the following testing. Note that the testing and breeding of animals complied with pertinent laws, regulations, ordinances, and guidelines, and was performed with the approval of the Experimental Ethics Review Board of the Institute of Physical and Chemical Research. The following reagents were respectively prepared. • Comparative Example 1: 60% aqueous ethanol solution • Comparative Example 2: 5% minoxidil solution • Comparative Example 3: 3% minoxidil solution • Comparative Example 4: 1% minoxidil solution • Working Example 1: 3% phytosphingosine solution • Working Example 2: 1% phytosphingosine solution To collect dorsal body hair skin in the form of anagen stage VI skin 12 to 14 days following depilation, C57BL/6N mice of age 7 to 8 weeks were depilated at locations where dorsal body hair skin was intended to be collected, and were bred for 12 to 14 days. The depilated C57BL/6N mice were thereafter euthanized by cervical dislocation, following which a suitable amount of dorsal body hair skin was collected from the locations at which dorsal body hair skin was intended to be collected. The collected skin was immersed in DMEM culture medium (hereinafter “DMEM 10”) which contained 10 mM HEPES, 10% fetal bovine serum, and 1% penicillin/streptomycin solution. The collected dorsal body hair skin was grasped with bent-nose curved tweezers and was treated by immersion for 10 seconds in a sterilizing solution. Sterilization treatment was performed by carrying out treatment with 7% povidone iodine solution two times, treatment with PBS (−) three times, and treatment with DMEM 10 two times, in this order, with fresh solutions respectively being used each time. Following sterilization treatment, these were immersed in clean DMEM 10. Following sterilization treatment, the dorsal body hair skin was cut into pieces and formed into blocks. The transparent connective tissue which adhered to the cutaneous muscle layer of the skin was excised therefrom using curved scissors, and hair groups were cut into rectangular strips in parallel fashion with respect to the direction of the wave of the hair. At this time, these were cut into blocks such that there were 6 rows of hair follicles along the long axis, adjustment having been carried out so that there were 5 rows of hair follicles along the short axis. The skin samples derived from dorsal body hair skin that were prepared in accordance with the foregoing were grafted onto Balb/c nu/nu mice of age 4 to 6 weeks. More specifically, mice were anesthetized in the usual way using isoflurane gas. The dorsal area of the mice was then disinfected using 7% povidone iodine solution, following which the mice were made to assume a naturally recumbent posture. In addition, a Mani ophthalmic knife (Mani, Inc.; Japan) was used to pierce the skin at the dorsal area of the mice, the grafts which were formed extending from the epidermal layer of the skin to the subdermal layer. The skin samples derived from dorsal body hair skin were inserted into the grafts formed thereat in such fashion as to cause the hair groups to be directed toward the body surface side of the grafts. Skin sample transplanted depth was adjusted so as to cause the top portion of the hair group to be in a state such that it was exposed at the top portion of the graft. To protect the grafts, Nurseban (registered trademark) (Sunplanet Co., Ltd.; Japan) and surgical tape (3M Japan Limited; Japan) were then used as protective tape to cover the grafts at which the skin samples derived from dorsal body hair skin had been transplanted. The protective tape was removed 5 to 7 days following transplantation, and survival of the transplanted skin samples derived from dorsal body hair skin was determined by visual inspection or digital microscopy (Keyence Corporation; Japan), after which follow-up observation was carried out. […]
# [2] = tested on: hair groups derived from C57BL/6N dorsal body hair skin transplanted in Balb/c nu/nu mice; experiment: Evaluation of hair-diameter-increasing activity (hair shafts grown after third cycle of Exemplary Test 1); format: in vivo
# Method: Dorsal body hair skin was collected from C57BL/6N mice (SLC) of age 7 to 8 weeks in accordance with a procedure similar to that at Exemplary Test 1, above, the drug being applied after the hair groups derived from the dorsal body hair skin that had been fabricated were transplanted in Balb/c nu/nu mice (SLC) of age 4 to 6 weeks. Testing and breeding of animals complied with pertinent laws, regulations, ordinances, and guidelines, and was performed with the approval of the Experimental Ethics Review Board of the Institute of Physical and Chemical Research. The following three solutions were used during testing. • 60% aqueous ethanol solution • 5% minoxidil solution • 1% phytosphingosine solution Measurement of increase in hair diameter was carried out using hair shafts which had grown following completion of the third cycle at Exemplary Test 1. Of the hair shafts that were collected, two zigzag hairs were used. Three locations were selected in regions where diameter was large in the central portions thereof using a square 100 μm on a side. Measurement of selected regions was carried out at five locations. Hairs as they existed following application of the drug were used for measurement of hair shaft diameter.
# [3] = 1% minoxidil solution (Comparative Example 4), second hair cycle
# [4] = 1% minoxidil solution (Comparative Example 4), third hair cycle
# [5] = 1% minoxidil solution, second hair cycle vs first hair cycle
# [6] = 1% minoxidil solution, third hair cycle vs first hair cycle
# [7] = 3% minoxidil solution (Comparative Example 3), second hair cycle
# [8] = 3% minoxidil solution (Comparative Example 3), third hair cycle
# [9] = 3% minoxidil solution, second hair cycle vs first hair cycle
# [10] = 3% minoxidil solution, third hair cycle vs first hair cycle
# [11] = 5% minoxidil solution (Comparative Example 2), second hair cycle
# [12] = 5% minoxidil solution (Comparative Example 2), third hair cycle
# [13] = 5% minoxidil solution, second hair cycle vs first hair cycle
# [14] = 5% minoxidil solution, third hair cycle vs first hair cycle
smiles,measurement,setting,value
Nc1cc(N2CCCCC2)nc(N)[n+]1[O-] [minoxidil],Hair shaft elongation rate,[1]; [3],0.54 ± 0.08 mm/day
same,Maximum hair shaft length,[1]; [3],5.2 ± 0.3 mm
same,Hair shaft elongation rate,[1]; [4],0.44 ± 0.02 mm/day
same,Maximum hair shaft length,[1]; [4],4.9 ± 0.4 mm
same,"Hair shaft elongation rate, percent change relative to reference data",[1]; [5],123.85%
same,"Maximum hair shaft length, percent change relative to reference data",[1]; [5],118.07%
same,"Hair shaft elongation rate, percent change relative to reference data",[1]; [6],100.24%
same,"Maximum hair shaft length, percent change relative to reference data",[1]; [6],111.10%
same,Hair shaft elongation rate,[1]; [7],0.48 ± 0.07 mm/day
same,Maximum hair shaft length,[1]; [7],5.2 ± 0.2 mm
same,Hair shaft elongation rate,[1]; [8],0.53 ± 0.03 mm/day
same,Maximum hair shaft length,[1]; [8],5.3 ± 0.3 mm
same,"Hair shaft elongation rate, percent change relative to reference data",[1]; [9],126.50%
same,"Maximum hair shaft length, percent change relative to reference data",[1]; [9],116.80%
same,"Hair shaft elongation rate, percent change relative to reference data",[1]; [10],139.36%
same,"Maximum hair shaft length, percent change relative to reference data",[1]; [10],120.09%
same,Hair shaft elongation rate,[1]; [11],0.51 ± 0.03 mm/day
same,Maximum hair shaft length,[1]; [11],6.0 ± 0.1 mm
same,Hair shaft elongation rate,[1]; [12],0.55 ± 0.07 mm/day
same,Maximum hair shaft length,[1]; [12],5.8 ± 0.1 mm
same,"Hair shaft elongation rate, percent change relative to reference data",[1]; [13],116.25%
same,"Maximum hair shaft length, percent change relative to reference data",[1]; [13],115.74%
same,"Hair shaft elongation rate, percent change relative to reference data",[1]; [14],126.11%
same,"Maximum hair shaft length, percent change relative to reference data",[1]; [14],112.62%
same,Hair shaft diameter,"[2]; 5% minoxidil solution applied, hair shafts after third cycle",18.28 μm
same,hair shaft diameter as percent of control,[2]; 5% minoxidil solution vs 60% aqueous ethanol solution,115%
